How the values were obtained:
[1] = system: PC-3 prostate cancer cells; test: SRB-assay, reduction in total cellular biomass; type: cell-based, human; conditions: 0.75 mM racemic 4-yn VPA in combination with Camptothecin, 48 hours
Protocol: The reduction in cellular biomass was measured by SRB-assay. For this assay cells were seeded in 96 well culture dishes at densities between 3000 and 8000 cells per well. […] Cultures were fixed with cold TCA producing a final TCA concentration of 10%. After 1 hour of incubation at 4° C. the cells were washed five times with water and air dried. Fixed cells were stained for 30 minutes with 0,4% (wt/vol) Sulforhodamine B (SRB) dissolved in 1% acetic acid and washed four times with 1% acetic acid to remove unbound dye. After air drying bound dye was solubilized with 10 mM unbuffered Tris base (pH 10,5) for 5 minutes. Optical densities were read on a Titertek Multiskan Plus spectrophotometric plate reader at 550 nm. Six test wells for each dose-response were set in parallel with 12 growth control wells per cell line. A measure of the cell population density at time 0 (To; the time at which the drug was added) was also made from 12 extra reference wells of cells fixed with TCA just prior to drug addition to the test plates. Background OD of complete medium with 5% FBS fixed and stained as described above was also determined in 12 separate wells. […]
(§1) The effect on the reduction in total cellular biomass was measured by SRB-assay (see example 1 for assay and read-out procedure details).

[2] = system: DU-145 prostate cancer cells; test: SRB-assay, reduction in total cellular biomass; type: cell-based, human; conditions: 48 hours
Protocol: (§2) The reduction in cellular biomass was measured by SRB-assay. For this assay cells were seeded in 96 well culture dishes at densities between 3000 and 8000 cells per well. […] Cultures were fixed with cold TCA producing a final TCA concentration of 10%. After 1 hour of incubation at 4° C. the cells were washed five times with water and air dried. Fixed cells were stained for 30 minutes with 0,4% (wt/vol) Sulforhodamine B (SRB) dissolved in 1% acetic acid and washed four times with 1% acetic acid to remove unbound dye. After air drying bound dye was solubilized with 10 mM unbuffered Tris base (pH 10,5) for 5 minutes. Optical densities were read on a Titertek Multiskan Plus spectrophotometric plate reader at 550 nm. Six test wells for each dose-response were set in parallel with 12 growth control wells per cell line. A measure of the cell population density at time 0 (To; the time at which the drug was added) was also made from 12 extra reference wells of cells fixed with TCA just prior to drug addition to the test plates. Background OD of complete medium with 5% FBS fixed and stained as described above was also determined in 12 separate wells. From the unprocessed OD data from each microtiter plate the background OD measurements (i.e. OD of complete medium plus stain and OD of cells at T0) were subtracted thus giving the reduction of cellular biomass of the cells.
as §1
Results using MCF-7 estrogen-dependent breast cancer cells are presented in FIG. 18 and using DU-145 prostate cancer cells in FIG. 19. […] The effect on cell growth was measured by SRB-assay as described in example 1.

[3] = system: HCT-15 colon cancer cells; test: SRB-assay, reduction in total cellular biomass; type: cell-based, human; conditions: 5-FU alone at doses lower than 0.5 μM, 48 hours
Protocol: as §2
This was in particular obvious when lower concentrations of 5-FU were used. E.g. […] Thus, this combinatorial activity of these two drugs must be explained via a synergistic activity of this treatment.

[4] = system: HCT-116 colon cancer cells; test: cell counts and propidium iodide cell cycle/apoptosis analysis; type: cell-based, human
Protocol: For FIG. 14 cells were seeded in 6 well culture dishes at 100000 cells/well. The day after, they were treated with the indicated drugs (5-FU: 2 μM 5-Fluoruracile; AD: 20 ng/ml adriamycin; IT: 3 μM irinothecan), and then cultured for further 48 hours. Cells were counted at 24 h and 48 h after treatment. All of the assays have been performed in triplicate.
For FIG. 15 cells were seeded in 6 well culture dishes at 100000 cells/well. […] (A), results of triplicate counts of viable cells. (B), cells were stained with propidium iodide after permeabilization and fixation. Results of a cell cycle analysis are presented as percentage (%) of cells in G1, S, G2+M, and sub-G1 (apoptotic cells): all of the assays have been performed in triplicate.
(A), results of triplicate counts of viable cells. (B), cells were stained with propidium iodide after permeabilization and fixation. Results of a cell cycle analysis are presented as percentage (%) of apoptotic cells: all of the assays have been performed in triplicate.
For FIG. 17 cells were seeded in 10 cm culture dishes (1 million cells/dish). […] The day after, they were treated with the following drugs: 5-FU (panel A), AD (B), or IT (C), at the concentrations as indicated for FIG. 14. Cells were analyzed at the day of treatment, 24 h, and 48 h following treatment. Upper panels, results of triplicate counts of viable cells. Lower panels, cells were stained with propidium iodide after permeabilization and fixation. Results of a cell cycle analysis are presented as percentage (%) of apoptotic cells: all of the assays have been performed in triplicate.

F9 cells = conditions: cited from earlier work
PPARδ = conditions: cited from earlier work
[5] = system: primary AML blasts from AML patients; test: ex vivo differentiation, viability and apoptosis of leukemic blasts; type: cell-based, human
Protocol: Each point represents the mean of a set of data determined in triplicate (Example 15). VPA may cause synergistic therapeutic responses.
Cases were classified according to the French-American-British (FAB) classification (Bennett et al., Ann Intern Med 103, 1985). Cytogenetic analysis and RT-PCR tests were performed to rule out the presence of the APL associated fusion genes according to standard methods as described (Mandelli et al., Blood 90, 1997; Mancini et al., Br J Haematol. 91, 1995; Grimwade et al., Blood 90, 1999).

PML-RAR leukemia = conditions: PML-RAR patient with multiple relapses after retinoic acid and chemotherapy; cited from earlier work
[6] = drug alone at the concentrations used (5-FU 2 μM; AD 20 ng/ml; IT 3 μM)

With `C#CCC(CCC)C(=O)O` (racemic) [4-yn VPA, 2-n-Propyl-4-pentynoic acid] the “reduction in cellular biomass” value [1] was “at least additive therapeutic effect” and the “reduction of cellular biomass” value ([2]; 0.75 mM racemic 4-yn VPA in combination with cis Platinum lower than 10 μM) was “synergistic reduction of cellular biomass”.

In the case of `O=c1[nH]cc(F)c(=O)[nH]1` [5-FU, 5-Fluorouracil], the cellular biomass [3] is reported as “increase of the cellular biomass”, the apoptosis [4, 6] is reported as “did not induce apoptosis significantly” and the growth rate [4, 6] is reported as “only moderately affected the growth rate”. For the same compound, the apoptosis ([4]; high concentrations of 5-FU alone (not shown)) was “efficiently induce apoptosis”, the apoptosis ([4]; lower doses of 5-FU alone) was “only a modest effect” and the cell number ([4]; lower doses of 5-FU alone, due to reduction in cycling cells) was “reduction in cell number”.

For `CC(/C=C/C(=O)NO)=C\[C@@H](C)C(=O)c1ccc(N(C)C)cc1` [TSA], the F9 cell differentiation (F9 cells) is listed as “induces the same type of F9 cell differentiation as VPA”, the PPARδ activation (PPARδ) is listed as “activates PPARδ” and the “synergistic activities in combination (FIGS. 21 and 25)” value ([5]; TSA +/- RA, compared to the extent VPA does) is listed as “does not display this synergistic activities”. The “apoptosis of AML blasts (FACS, propidium-iodide)” value ([5]; single agent, 4 cases tested) was “not TSA, was found effective in inducing apoptosis”.

For `COc1cccc2c1C(=O)c1c(O)c3c(c(O)c1C2=O)C[C@@](O)(C(=O)CO)C[C@@H]3O[C@H]1C[C@H](N)[C@H](O)[C@H](C)O1` [adriamicine], the apoptosis [4, 6] was “did not induce apoptosis significantly” and the growth rate [4, 6] was “only moderately affected the growth rate”.

With `N.N.[Cl][Pt][Cl]` [cisPlatinum] the cellular biomass ([2]; cisPlatinum alone at concentrations lower than 10 μM) was “no decrease of the cellular biomass” and the cellular biomass ([2]; cisPlatinum alone at doses lower than 1 μM) was “no decrease of the cellular biomass”.

For `CCc1c2c(nc3ccc(OC(=O)N4CCC(N5CCCCC5)CC4)cc13)-c1cc3c(c(=O)n1C2)COC(=O)[C@]3(O)CC` [irinothecan], the apoptosis [4, 6] was “did not induce apoptosis significantly” and the growth rate [4, 6] was “only moderately affected the growth rate”.

In the case of phenylbutyrate, the clinical response (PML-RAR leukemia) is listed as “complete remission of the leukemia”.

From US20050038113A1, “Valproic acid and derivatives for the combinatorial therapeutic treatment of human cancers and for the treatment of tumor metastasis and minimal residual disease” (G2M Cancer Drugs AG, priority 2001, published 2005)
